# Literature values, collected in patent publication US10201585B2, “Methods for treatment of atherosclerosis” (Stealth Peptides International, Inc., priority 2012, dated 2019).
# Key:
# [1] = system: spinal cord injury in rodents; conditions: administered both pre- and post-injury; cited from earlier work
# hepatitis C virus (HCV) = conditions: alone and with interferon; cited from earlier work
Compound,Effect in spinal cord injury [1],Effect on HCV in an in vitro model of HCV infection (hepatitis C virus (HCV))
CC(C)c1c(C(=O)Nc2ccccc2)c(-c2ccccc2)c(-c2ccc(F)cc2)n1CC[C@@H](O)C[C@@H](O)CC(=O)O [atorvastatin],"promoting locomotion and tissue sparing, as well as reducing inflammation",anti-HCV effect
CC[C@H](C)C(=O)O[C@H]1C[C@@H](C)C=C2C=C[C@H](C)[C@H](CC[C@@H]3C[C@@H](O)CC(=O)O3)[C@H]21 [lovastatin],–,anti-HCV effect
O=C(O)C[C@H](O)C[C@H](O)/C=C/c1c(C2CC2)nc2ccccc2c1-c1ccc(F)cc1 [pitavastatin],–,anti-HCV effect
